# Test results reported in patent US20220332700A1, “NOVEL APOPTOSIS SIGNAL-REGULATING KINASE 1 INHIBITORS” (MANKIND PHARMA LTD, priority 2019, published 2022).
# Tests used:
# [1] = target: T1, recombinant ASK1 (Homo sapiens, UniProt Q99683); assay: ASK1 Biochemical Assay (HTRF KinEASE-STK S3); settings: ATP 100 μM; read-out: Biochemical Assay IC50
# T1 construct: purchased Carna Biosciences
# Outline: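 Recombinant ASK1 (5 ng) preincubated with compound 1 h at 23 °C in MOPS pH 7 buffer with Mg-acetate, DTT, NP40, glycerol, BSA and 1% DMSO. Inhibition calculated against vehicle after substrate-blank subtraction.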
# [2] = target: T2, Human ASK1 (Homo sapiens, UniProt Q99683); assay: ASK1 Cell Based Assay (phospho p38 read out in hASK1 transfected HEK293T-AP1 cells); settings: HEK293T-AP1 cells, 1 mM hydrogen peroxide, phospho p38; read-out: Cell Based Assay IC50
# T2 construct: expressed in transfected cells; host or cells: HEK293T-AP1
# T2 sequence (Q99683 1-1374): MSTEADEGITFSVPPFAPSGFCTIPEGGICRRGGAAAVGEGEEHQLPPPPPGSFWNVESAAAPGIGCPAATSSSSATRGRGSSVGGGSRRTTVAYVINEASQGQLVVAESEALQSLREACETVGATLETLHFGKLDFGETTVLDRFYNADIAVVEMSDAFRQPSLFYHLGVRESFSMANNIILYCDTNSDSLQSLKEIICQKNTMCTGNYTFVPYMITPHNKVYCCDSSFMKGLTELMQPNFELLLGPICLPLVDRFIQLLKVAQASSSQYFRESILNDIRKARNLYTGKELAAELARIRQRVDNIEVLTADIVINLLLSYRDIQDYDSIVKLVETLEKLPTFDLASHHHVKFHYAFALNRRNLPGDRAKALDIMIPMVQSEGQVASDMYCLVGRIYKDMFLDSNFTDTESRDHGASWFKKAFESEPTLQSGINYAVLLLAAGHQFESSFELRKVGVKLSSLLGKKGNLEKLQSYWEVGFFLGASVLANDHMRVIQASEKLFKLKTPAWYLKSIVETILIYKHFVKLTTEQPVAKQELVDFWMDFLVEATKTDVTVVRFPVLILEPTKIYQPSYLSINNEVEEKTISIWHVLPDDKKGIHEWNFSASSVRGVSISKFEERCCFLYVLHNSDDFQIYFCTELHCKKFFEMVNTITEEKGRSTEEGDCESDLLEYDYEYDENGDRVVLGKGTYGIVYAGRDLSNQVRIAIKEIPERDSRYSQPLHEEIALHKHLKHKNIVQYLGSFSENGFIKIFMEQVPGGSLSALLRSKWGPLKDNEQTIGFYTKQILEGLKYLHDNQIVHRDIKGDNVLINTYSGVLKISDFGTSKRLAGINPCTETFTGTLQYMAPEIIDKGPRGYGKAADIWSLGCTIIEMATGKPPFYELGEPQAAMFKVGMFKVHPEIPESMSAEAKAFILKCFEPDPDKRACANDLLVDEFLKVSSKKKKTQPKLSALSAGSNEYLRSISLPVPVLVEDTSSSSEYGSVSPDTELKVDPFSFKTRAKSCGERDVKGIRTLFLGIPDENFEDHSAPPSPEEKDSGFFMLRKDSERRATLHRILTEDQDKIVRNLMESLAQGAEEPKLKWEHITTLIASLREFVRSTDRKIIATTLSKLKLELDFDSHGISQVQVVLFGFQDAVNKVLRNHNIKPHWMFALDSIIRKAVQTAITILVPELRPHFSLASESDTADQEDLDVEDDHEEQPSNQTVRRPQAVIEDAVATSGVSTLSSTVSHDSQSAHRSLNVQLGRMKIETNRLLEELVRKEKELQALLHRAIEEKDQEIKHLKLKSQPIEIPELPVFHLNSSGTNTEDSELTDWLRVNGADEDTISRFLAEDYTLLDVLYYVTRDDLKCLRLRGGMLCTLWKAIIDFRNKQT
# Method: HEK293T-AP1 cells were seeded at a density of 20,000 cells per well in a poly-d-lysine coated 96 well microplate. Next day, cells were transfected with hASK1-pcDNA3.1 vector using lipofectamine 3000. After 24 hours of transfection, cells were treated with compounds for 24 hours in assay medium. DMSO was used as a vehicle control with a final DMSO concentration of 0.2%. On 4th day, medium was discarded and cells were activated with 1 mM hydrogen peroxide for 1 hour in the presence of compounds. Cells were lysed for 1 hour with 1× lysis buffer on a shaker at 100 rpm. Sixteen microliters of lysate was collected into a 384 well small volume plate. Phospho p38 levels in the lysate was detected by using CisbioPhospho-p38 MAPK (Thr180/Tyr182) #64P38PEG.Four microliters of phospho p38 antibodies labelled with europium cryptate and d2 acceptor, were added to the lysate and incubated overnight. TR-FRET was measured at an excitation of 335 nm and emission was measured at 615 nm and 665 nm in BMG FLUOstar multimode reader.
# Compounds were assessed for ASK1 inhibition based on phospho p38 read out. […] Background control values were susbtracted from vehicle control as well as from compound treated wells.
SMILES,IC50 [1] [nM],IC50 [2] [nM]
"COc1ccc(N2CCN(c3cccc(-c4nncn4C(C)C)n3)C2=O)cc1 [Example 1039, 1-(6-(4-isopropyl-4H-1,2,4-triazol-3-yl)pyridin-2-yl)-3-(4-methoxyphenyl)imidazolidin-2-one]",< 100,> 1000
"CC(C)n1cnnc1-c1cccc(N2CCN(c3ccc(-n4cnc(C5CC5)c4)cc3)C2=O)n1 [Example 1040, 1-(4-(4-cyclopropyl-1H-imidazol-1-yl)phenyl)-3-(6-(4-isopropyl-4H-1,2,4-triazol-3-yl)pyridin-2-yl)imidazolidin-2-one]",< 100,> 10000
"CC(C)n1cnnc1-c1cccc(N2CCN(c3ccc(N(C)C)cc3)C2=O)n1 [Example 1041, 1-(4-(dimethylamino)phenyl)-3-(6-(4-isopropyl-4H-1,2,4-triazol-3-yl)pyridin-2-yl)imidazolidin-2-one]",< 100,> 1000
"CC(C)n1cnnc1-c1cccc(N2CCN(c3ccc(NS(C)(=O)=O)cc3)C2=O)n1 [Example 1044, N-(4-(3-(6-(4-isopropyl-4H-1,2,4-triazol-3-yl)pyridin-2-yl)-2-oxoimidazolidin-1-yl)phenyl)methanesulfonamide]",< 100,> 1000
"CNS(=O)(=O)c1ccc(N2CCN(c3cccc(-c4nncn4C(C)C)n3)C2=O)cc1 [Example 1045, 4-(3-(6-(4-isopropyl-4H-1,2,4-triazol-3-yl)pyridin-2-yl)-2-oxoimidazolidin-1-yl)-N-methylbenzenesulfonamide]",< 100,< 1000
"CC(C)n1cnnc1-c1cccc(N2CCN(c3ccc(CS(C)(=O)=O)cc3)C2=O)n1 [Example 1047, 1-(6-(4-isopropyl-4H-1,2,4-triazol-3-yl)pyridin-2-yl)-3-(4-((methylsulfonyl)methyl)phenyl)imidazolidin-2-one]",< 100,> 1000
"CC(C)n1cnnc1-c1cccc(N2CCN(c3ccc(C(=O)NC4CC4)cc3)C2=O)n1 [Example 1048, N-cyclopropyl-4-(3-(6-(4-isopropyl-4H-1,2,4-triazol-3-yl)pyridin-2-yl)-2-oxoimidazolidin-1-yl)benzamide]",< 100,> 1000
"COCCS(=O)(=O)c1ccc(N2CCN(c3cccc(-c4nncn4C(C)C)n3)C2=O)cc1 [Example 1050, 1-(4-(2-methoxyethylsulfonyl)phenyl)-3-(6-(4-isopropyl-4H-1,2,4-triazol-3-yl)pyridin-2-yl)imidazolidin-2-one]",< 100,> 1000
"CC(C)n1cnnc1-c1cccc(N2CCN(c3ccc(C(O)C4CC4)cc3)C2=O)n1 (stereo not drawn) [Example 1051, 1-(4-(cyclopropyl(hydroxy)methyl)phenyl)-3-(6-(4-isopropyl-4H-1,2,4-triazol-3-yl)pyridin-2-yl)imidazolidin-2-one]",< 100,< 1000
"CC(C)n1cnnc1-c1cccc(N2CCN(c3ccc(NC(C(N)=O)C4CC4)cc3)C2=O)n1 (stereo not drawn) [Example 1052, 2-(4-(3-(6-(4-isopropyl-4H-1,2,4-triazol-3-yl)pyridin-2-yl)-2-oxoimidazolidin-1-yl)phenylamino)-2-cyclopropylacetamide]",< 100,> 1000
"CC(CC#N)n1cnnc1-c1cccc(N2CCN(c3ccc(S(C)(=O)=O)cc3)C2=O)n1 (stereo not drawn) [Example 1053, 3-(3-(6-(3-(4-(methylsulfonyl)phenyl)-2-oxoimidazolidin-1-yl)pyridin-2-yl)-4H-1,2,4-triazol-4-yl)butanenitrile]",< 100,> 1000
"COc1cc(S(C)(=O)=O)c(C)cc1N1CCN(c2cccc(-c3nncn3C(C)C)n2)C1=O [Example 1055, 1-(6-(4-isopropyl-4H-1,2,4-triazol-3-yl)pyridin-2-yl)-3-(2-methoxy-5-methyl-4-(methylsulfonyl)phenyl)imidazolidin-2-one]",< 100,> 1000
"CC(C)n1cnnc1-c1cccc(N2CCN(c3ccc(NC(C#N)C4CC4)cc3)C2=O)n1 (stereo not drawn) [Example 1056, 2-(4-(3-(6-(4-isopropyl-4H-1,2,4-triazol-3-yl)pyridin-2-yl)-2-oxoimidazolidin-1-yl)phenylamino)-2-cyclopropylacetonitrile]",> 100,> 1000
"CC(CO)n1cnnc1-c1cccc(N2CCN(c3ccc(S(C)(=O)=O)cc3)C2=O)n1 (stereo not drawn) [Example 1057, 1-(6-(4-(1-hydroxypropan-2-yl)-4H-1,2,4-triazol-3-yl)pyridin-2-yl)-3-(4-(methylsulfonyl)phenyl)imidazolidin-2-one]",< 100,> 1000
"CC(C)n1cnnc1-c1cccc(N2CCN(c3ccc(S(C)(=O)=O)c(C4CC4)c3)C2=O)n1 [Example 1059, 1-(3-cyclopropyl-4-(methylsulfonyl)phenyl)-3-(6-(4-isopropyl-4H-1,2,4-triazol-3-yl)pyridin-2-yl)imidazolidin-2-one]",< 100,> 1000
"CC(n1cnnc1-c1cccc(N2CCN(c3ccc(S(C)(=O)=O)cc3)C2=O)n1)C(F)(F)F (stereo not drawn) [Example 1061, 1-(6-(4-(1,1,1-trifluoropropan-2-yl)-4H-1,2,4-triazol-3-yl)pyridin-2-yl)-3-(4-(methylsulfonyl)phenyl)imidazolidin-2-one]",< 100,> 1000
"CC(C)n1cnnc1-c1cccc(N2CCN(c3ccc(S(C)(=O)=O)c(N4CCCCC4)c3)C2=O)n1 [Example 1063, 1-(6-(4-isopropyl-4H-1,2,4-triazol-3-yl)pyridin-2-yl)-3-(4-(methylsulfonyl)-3-(piperidin-1-yl)phenyl)imidazolidin-2-one]",< 100,> 1000
"CC(C)n1cnnc1-c1cccc(N2CCN(c3ccc(C4CCOCC4)cc3)C2=O)n1 [Example 1066, 1-(4-(tetrahydro-2H-pyran-4-yl)phenyl)-3-(6-(4-isopropyl-4H-1,2,4-triazol-3-yl)pyridin-2-yl)imidazolidin-2-one]",< 100,> 1000
"CC(C)n1cnnc1-c1cccc(N2CCN(c3ccc(N4CCC(O)CC4)cc3)C2=O)n1 [Example 1067, 1-(4-(4-hydroxypiperidin-1-yl)phenyl)-3-(6-(4-isopropyl-4H-1,2,4-triazol-3-yl)pyridin-2-yl)imidazolidin-2-one]",< 100,> 100
"CC1COCC(=O)N1c1ccc(N2CCN(c3cccc(-c4nncn4C(C)C)n3)C2=O)cc1 (stereo not drawn) [Example 1068, 4-(4-(3-(6-(4-isopropyl-4H-1,2,4-triazol-3-yl)pyridin-2-yl)-2-oxoimidazolidin-1-yl)phenyl)-5-methylmorpholin-3-one]",< 100,> 100
"CC1COCCN1c1ccc(N2CCN(c3cccc(-c4nncn4C(C)C)n3)C2=O)cc1 (stereo not drawn) [Example 1069, 1-(6-(4-isopropyl-4H-1,2,4-triazol-3-yl)pyridin-2-yl)-3-(4-(3-methylmorpholino)phenyl)imidazolidin-2-one]",< 100,> 100
